The target in test [1] is T1, GST fusion human ERK2 protein (Homo sapiens, UniProt P28482).
T1 construct: purchased Carna Biosciences, Inc; host or cells: E. coli expression system
The test can be described thus: ERK2 enzyme assay (2). It is filed as biochemical. The note with it: read-out: ERK2 enzyme inhibitory activity (2). An outline of the steps:
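IC50 values come from mobility-shift measurement of phosphorylated versus unphosphorylated 5-FAM peptide substrate after EDTA quench. Beforehand, compound and 1.25 nmol/L E. coli-expressed GST–human ERK2 stood 15 min at room temperature (pH 7.5), then 1 mmol/L ATP and 4.25 μmol/L substrate (final) were added for 120 min at 25 °C.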

Test [2] deals with T1, GST fusion human ERK2 protein. Description: ERK2 enzyme assay (1). It counts as biochemical. The note with it: read-out: ERK2 enzyme inhibitory activity (1). Put shortly:
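IC50 derived from the proportion of phosphorylated 5-FAM peptide, separated from unphosphorylated peptide by microfluidic mobility shift. Compound was first preincubated 15 min at room temperature with 2.5 nmol/L kinase at pH 7.5, then 43.1 μmol/L ATP plus 4.25 μmol/L substrate reacted 120 min at 25 °C.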

The subject of test [3] is CHO-K1 cells. The test can be described thus: CHO cell toxicity test. It is filed as cell-based, Chinese hamster. The note with it: Cricetulus griseus; CHO-K1 cells, 24 hours culture with compound, CellTiter-Glo; read-out: IC50 value (concentration at which the number of viable cells was suppressed to 50% or less). Put shortly:
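CHO-K1 cells were cultured 24 h, then exposed 24 h to compound at final 25.00 to 0.20 μmol/L in F-12 with 2% FCS. Viability read by CellTiter-Glo luminescence; inhibition % = 100 − (treated/untreated signal)×100.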

The target in test [4] is T2, human PI3Kα protein (Homo sapiens, UniProt P42336).
T2 construct: purchased Carna Biosciences, Inc; host or cells: baculovirus expression system
T2 sequence (P42336 whole entry): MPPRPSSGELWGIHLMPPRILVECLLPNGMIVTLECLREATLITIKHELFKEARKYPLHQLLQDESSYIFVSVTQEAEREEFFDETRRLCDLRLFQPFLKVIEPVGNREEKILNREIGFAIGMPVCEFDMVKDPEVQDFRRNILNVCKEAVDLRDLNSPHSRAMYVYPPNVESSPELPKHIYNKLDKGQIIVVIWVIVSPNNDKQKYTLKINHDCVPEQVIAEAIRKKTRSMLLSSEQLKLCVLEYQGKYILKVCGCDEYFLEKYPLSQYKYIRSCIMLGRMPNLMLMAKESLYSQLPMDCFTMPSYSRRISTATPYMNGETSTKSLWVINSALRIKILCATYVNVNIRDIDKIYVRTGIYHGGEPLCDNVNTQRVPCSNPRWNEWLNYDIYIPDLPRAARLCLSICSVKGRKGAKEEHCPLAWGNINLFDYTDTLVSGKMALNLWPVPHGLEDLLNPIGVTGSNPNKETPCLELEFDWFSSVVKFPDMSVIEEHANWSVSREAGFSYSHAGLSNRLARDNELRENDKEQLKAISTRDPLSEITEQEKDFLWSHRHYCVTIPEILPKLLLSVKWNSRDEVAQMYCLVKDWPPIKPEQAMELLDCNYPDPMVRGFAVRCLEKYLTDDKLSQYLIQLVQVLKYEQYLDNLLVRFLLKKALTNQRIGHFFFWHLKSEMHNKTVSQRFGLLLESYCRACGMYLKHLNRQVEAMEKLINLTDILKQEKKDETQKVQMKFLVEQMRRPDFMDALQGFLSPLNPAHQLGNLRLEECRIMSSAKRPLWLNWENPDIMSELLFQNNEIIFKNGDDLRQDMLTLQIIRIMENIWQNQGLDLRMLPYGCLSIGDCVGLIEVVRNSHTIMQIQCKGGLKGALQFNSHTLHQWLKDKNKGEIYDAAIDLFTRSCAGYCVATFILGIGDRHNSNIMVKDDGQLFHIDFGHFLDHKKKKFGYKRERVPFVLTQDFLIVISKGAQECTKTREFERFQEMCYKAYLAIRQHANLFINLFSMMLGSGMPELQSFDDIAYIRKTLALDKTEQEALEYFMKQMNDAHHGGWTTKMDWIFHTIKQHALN
T2 sequence (P27986 whole entry partner): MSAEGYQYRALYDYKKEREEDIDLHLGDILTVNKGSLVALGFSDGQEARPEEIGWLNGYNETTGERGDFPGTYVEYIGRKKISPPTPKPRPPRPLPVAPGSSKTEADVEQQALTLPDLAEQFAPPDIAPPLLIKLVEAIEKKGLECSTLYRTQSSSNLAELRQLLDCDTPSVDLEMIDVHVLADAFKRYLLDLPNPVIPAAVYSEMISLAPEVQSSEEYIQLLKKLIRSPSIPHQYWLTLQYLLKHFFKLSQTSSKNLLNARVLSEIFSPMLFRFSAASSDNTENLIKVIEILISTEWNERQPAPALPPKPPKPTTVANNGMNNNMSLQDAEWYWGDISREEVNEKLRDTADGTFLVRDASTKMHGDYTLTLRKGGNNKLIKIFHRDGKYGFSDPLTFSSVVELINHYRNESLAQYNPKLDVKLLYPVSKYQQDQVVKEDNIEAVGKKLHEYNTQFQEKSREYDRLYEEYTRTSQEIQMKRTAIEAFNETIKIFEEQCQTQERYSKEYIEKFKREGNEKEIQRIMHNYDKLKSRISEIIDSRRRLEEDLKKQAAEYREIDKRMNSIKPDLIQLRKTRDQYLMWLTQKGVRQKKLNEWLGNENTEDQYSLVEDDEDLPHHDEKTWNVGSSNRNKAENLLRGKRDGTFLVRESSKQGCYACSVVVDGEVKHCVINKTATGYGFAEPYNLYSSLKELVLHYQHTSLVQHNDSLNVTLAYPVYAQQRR
Description: PI3Kα enzyme assay (ADP-Glo). It is filed as biochemical. The note with it: read-out: PI3Kα enzyme inhibitory activity. An outline of the steps: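 Biotinylated human PI3Kα (baculovirus-expressed, 4.5 nmol/L) pre-incubated 15 min with compound in Tris-HCl pH 7.5, MgCl2, BSA; reaction 60 min at 25° C with 50 μmol/L PIP2 and 100 μmol/L ATP final. ADP quantified by ADP-Glo luminescence; IC50 calculated.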

Where [5] appears, read: 2.5 nmol/L ERK2, ATP 43.1 μmol/L.
The mark [6] stands for this setting: 4.5 nmol/L PI3Kα, PIP2 50 μmol/L, ATP 100 μmol/L.

Like-named read-outs stand apart in the source and are kept apart here.

Here are results for 27 compounds from US9783536B2, “Nitrogen-containing heterocyclic compound or salt thereof” (FUJIFILM Corporation, priority 2013, dated 2017).

T1 sequence (P28482 whole entry, the tested form may be a part): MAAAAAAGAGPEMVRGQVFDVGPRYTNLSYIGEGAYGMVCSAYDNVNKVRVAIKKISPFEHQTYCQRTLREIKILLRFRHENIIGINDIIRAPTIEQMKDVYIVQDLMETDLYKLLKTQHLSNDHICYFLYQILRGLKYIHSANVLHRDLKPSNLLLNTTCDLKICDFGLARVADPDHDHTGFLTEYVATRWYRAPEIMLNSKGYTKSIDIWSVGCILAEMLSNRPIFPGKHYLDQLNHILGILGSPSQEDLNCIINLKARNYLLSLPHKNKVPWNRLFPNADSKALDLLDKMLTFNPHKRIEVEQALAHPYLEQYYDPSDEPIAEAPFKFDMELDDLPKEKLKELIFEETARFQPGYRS

`CCCCc1nn(C)cc1-c1cnc2ccc(Nc3nnc(C(C)C)s3)nc2c1` [Example 0130]: the IC50 in test [1] (1.25 nmol/L ERK2, ATP 1 mmol/L) was less than 1 µM; in test [2] (setting [5]), less than 1 µM; in test [3], not below 25 µM; in test [4] (setting [6]), less than 1 µM.

In the case of `c1cnnc(Nc2ccc3ncc(-c4cnn(CCCN5CCCC5)c4)cc3n2)c1` [Example 0137, N-(pyridazin-3-yl)-7-(1-(3-(pyrrolidin-1-yl)propyl)-1H-pyrazol-4-yl)-1,5-naphthyridine-2-amine], the IC50 in test [1] (1.25 nmol/L ERK2, ATP 1 mmol/L) was less than 1 µM; in test [2] (setting [5]), less than 1 µM; in test [3], not below 25 µM; in test [4] (setting [6]), less than 1 µM.

`Cc1cnnc(Nc2ccc3ncc(-c4cnn(C)c4)cc3n2)c1` [Example 0139]: the IC50 in test [1] (1.25 nmol/L ERK2, ATP 1 mmol/L) was less than 1 µM; in test [2] (setting [5]) it was less than 1 µM; in test [3], not below 25 µM; in test [4] (setting [6]), less than 1 µM.

For the compound `Cc1cnnc(Nc2ccc3ncc(-c4cnn(CCCN5CCCC5)c4)cc3n2)c1` [Example 0140], the IC50 was less than 1 µM in test [1] (1.25 nmol/L ERK2, ATP 1 mmol/L); less than 1 µM in test [2] (setting [5]); not below 25 µM in test [3]; less than 1 µM in test [4] (setting [6]).

Turning to `CC(C)c1cnnc(Nc2ccc3ncc(-c4cnn(C)c4)cc3n2)c1` [Example 0145], the IC50 in test [1] (1.25 nmol/L ERK2, ATP 1 mmol/L) was less than 1 µM; in test [2] (setting [5]), less than 1 µM; in test [3], not below 25 µM; in test [4] (setting [6]), less than 1 µM.

For `CC(C)c1cnnc(Nc2ccc3ncc(-c4cnn(CCCN5CCCC5)c4)cc3n2)c1` [Example 0148], the IC50 in test [1] (1.25 nmol/L ERK2, ATP 1 mmol/L) is less than 1 µM; in test [2] (setting [5]), less than 1 µM; in test [3] it was not below 25 µM; in test [4] (setting [6]) it was less than 1 µM.

On to `Cc1[nH]ncc1-c1cnc2ccc(Nc3nnc(C4CCCC4)s3)nc2c1` [Example 0214], for which the IC50 in test [1] (ERK2 enzyme assay (2)) is less than 1 µM; in test [2] (ERK2 enzyme assay (1)), less than 1 µM; in test [3] it was not below 25 µM; in test [4], 1 to 10 µM.

On to `Cn1cc(-c2cnc3ccc(Nc4nnc(N5CCOCC5)s4)nc3c2)cn1` [Example 0226, N-(7-(1-methyl-1H-pyrazol-4-yl)-1,5-naphthyridin-2-yl)-5-morpholino-1,3,4-thiadiazole-2-amine], for which the IC50 in test [1] (ERK2 enzyme assay (2)) is less than 1 µM; in test [2] (ERK2 enzyme assay (1)) it was less than 1 µM; in test [3], not below 25 µM; in test [4], 1 to 10 µM.

For `Cn1cc(-c2cnc3ccc(Nc4nnc(C5CCCO5)s4)nc3c2)cn1` (stereo not drawn) [Example 0227], the IC50 is less than 1 µM in test [1] (ERK2 enzyme assay (2)), less than 1 µM in test [2] (ERK2 enzyme assay (1)), not below 25 µM in test [3] and less than 1 µM in test [4].

For `c1nc2ccc(Nc3nnc(CC4CCCO4)s3)nc2cc1-c1cnn(CCCN2CCCC2)c1` (stereo not drawn) [Example 0240], the IC50 in test [1] (ERK2 enzyme assay (2)) was less than 1 µM; in test [2] (ERK2 enzyme assay (1)), less than 1 µM; in test [3] it was not below 25 µM; in test [4], less than 1 µM.

Consider `Cn1cc(-c2cnc3ccc(Nc4nnc(CC5CCCO5)s4)nc3c2)cn1` (stereo not drawn) [Example 0241], for which the IC50 in test [1] (ERK2 enzyme assay (2)) is less than 1 µM; in test [2] (ERK2 enzyme assay (1)), less than 1 µM; in test [3], not below 25 µM; in test [4], 1 to 10 µM.

Take `Cn1cc(-c2cnc3ccc(Nc4nnc(C5CCOC5)s4)nc3c2)cn1` (stereo not drawn) [Example 0243, N-(7-(1-methyl-1H-pyrazol-4-yl)-1,5-naphthyridin-2-yl)-5-(tetrahydrofuran-3-yl)-1,3,4-thiadiazole-2-amine]: the IC50 in test [1] (ERK2 enzyme assay (2)) is less than 1 µM; in test [2] (ERK2 enzyme assay (1)) it was less than 1 µM; in test [3], not below 25 µM; in test [4] it was less than 1 µM.

As to `CN1CCCC1c1nnc(Nc2ccc3ncc(-c4cnn(C)c4)cc3n2)s1` (stereo not drawn) [Example 0247, N-(7-(1-methyl-1H-pyrazol-4-yl)-1,5-naphthyridin-2-yl)-5-(1-methylpyrrolidin-2-yl)-1,3,4-thiadiazole-2-amine], the IC50 in test [1] (ERK2 enzyme assay (2)) was less than 1 µM; in test [2] (ERK2 enzyme assay (1)), less than 1 µM; in test [3], not below 25 µM; in test [4], 1 to 10 µM.

Consider `COc1cncc(Nc2cnc3ccc(Nc4nnc(CC5CCCO5)s4)nc3c2)c1` (stereo not drawn) [Example 0250, N^7-(5-methoxypyridin-3-yl)-N^2-(5-((tetrahydrofuran-2-yl)methyl)-1,3,4-thiadiazol-2-yl)-1,5-naphthyridine-2,7-diamine], for which the IC50 in test [1] (ERK2 enzyme assay (2)) was less than 1 µM; in test [2] (ERK2 enzyme assay (1)), less than 1 µM; in test [3] it was not below 25 µM; in test [4], less than 1 µM.

On to `CCc1cnnc(Nc2ccc3ncc(-c4cnn(CCCN5CCCC5)c4)cc3n2)c1` [Example 0291], for which the IC50 in test [1] (ERK2 enzyme assay (2)) was less than 1 µM; in test [2] (ERK2 enzyme assay (1)) it was less than 1 µM; in test [3], not below 25 µM; in test [4], less than 1 µM.

Consider `CCCc1cnnc(Nc2ccc3ncc(-c4cnn(CCCN5CCCC5)c4)cc3n2)c1` [Example 0293], for which the IC50 in test [1] (ERK2 enzyme assay (2)) was less than 1 µM; in test [2] (ERK2 enzyme assay (1)) it was less than 1 µM; in test [3], not below 25 µM; in test [4] it was less than 1 µM.

For `OCCCn1cc(-c2cnc3ccc(Nc4nnc(C5CCCC5)s4)nc3c2)cn1` [Example 0316, 3-(4-(6-((5-cyclopentyl-1,3,4-thiadiazol-2-yl)amino)-1,5-naphthyridin-3-yl)-1H-pyrazol-1-yl)propan-1-ol], the IC50 in test [1] (ERK2 enzyme assay (2)) is less than 1 µM; in test [2] (ERK2 enzyme assay (1)), less than 1 µM; in test [3] it was not below 25 µM; in test [4] it was less than 1 µM.

Take `Cc1nn(CCCN2CCCC2)cc1-c1cnc2ccc(Nc3nnc(C(C)C)s3)nc2c1` [Example 0321, 5-isopropyl-N-(7-(3-methyl-1-(3-(pyrrolidin-1-yl)propyl)-1H-pyrazol-4-yl)-1,5-naphthyridin-2-yl)-1,3,4-thiadiazole-2-amine]: the IC50 in test [1] (ERK2 enzyme assay (2)) was less than 1 µM; in test [2] (ERK2 enzyme assay (1)) it was less than 1 µM; in test [3], not below 25 µM; in test [4], less than 1 µM.

With `c1nnc(Nc2ccc3ncc(-c4cnn(CCCN5CCCC5)c4)cc3n2)s1` [Example 0322], the IC50 was less than 1 µM in test [1] (ERK2 enzyme assay (2)), less than 1 µM in test [2] (ERK2 enzyme assay (1)), not below 25 µM in test [3] and less than 1 µM in test [4].

In the case of `OCC(O)Cn1cc(-c2cnc3ccc(Nc4nnc(C5CCCC5)s4)nc3c2)cn1` (stereo not drawn) [Example 0338, 3-(4-(6-((5-Cyclopentyl-1,3,4-thiadiazol-2-yl)amino)-1,5-naphthyridin-3-yl)-1H-pyrazol-1-yl)propane-1,2-diol], the IC50 was less than 1 µM in test [1] (ERK2 enzyme assay (2)), less than 1 µM in test [2] (ERK2 enzyme assay (1)), not below 25 µM in test [3] and less than 1 µM in test [4].

As for `O=C(CCn1cc(-c2cnc3ccc(Nc4nnc(C5CCCC5)s4)nc3c2)cn1)N1CCCC1` [Example 0341, 3-(4-(6-((5-cyclopentyl-1,3,4-thiadiazol-2-yl)amino)-1,5-naphthyridin-3-yl)-1H-pyrazol-1-yl)-1-(pyrrolidin-1-yl)propan-1-one], the IC50 in test [1] (ERK2 enzyme assay (2)) is less than 1 µM; in test [2] (ERK2 enzyme assay (1)) it was less than 1 µM; in test [3] it was not below 25 µM; in test [4], less than 1 µM.

Consider `Cc1nn(C)cc1-c1cnc2ccc(Nc3nnc(C4CCCC4)s3)nc2c1` [Example 0347], for which the IC50 in test [1] (ERK2 enzyme assay (2)) is less than 1 µM; in test [2] (ERK2 enzyme assay (1)) it was less than 1 µM; in test [3], not below 25 µM; in test [4] it was less than 1 µM.

Turning to `Cc1c(-c2cnc3ccc(Nc4nnc(C5CCCC5)s4)nc3c2)cnn1C` [Example 0348], the IC50 is less than 1 µM in test [1] (ERK2 enzyme assay (2)), less than 1 µM in test [2] (ERK2 enzyme assay (1)), not below 25 µM in test [3] and 1 to 10 µM in test [4].

For the compound `FC1(F)CCN(CCCn2cc(-c3cnc4ccc(Nc5nnc(C6CCCC6)s5)nc4c3)cn2)C1` [Example 0352], the IC50 was less than 1 µM in test [1] (ERK2 enzyme assay (2)), less than 1 µM in test [2] (ERK2 enzyme assay (1)), not below 25 µM in test [3] and less than 1 µM in test [4].

`COc1c(-c2cnn(C)c2)cnc2ccc(Nc3nnc(C4CCCC4)s3)nc12` [Example 0355, 5-cyclopentyl-N-(8-methoxy-7-(1-methyl-1H-pyrazol-4-yl)-1,5-naphthyridin-2-yl)-1,3,4-thiadiazole-2-amine]: the IC50 is less than 1 µM in test [1] (ERK2 enzyme assay (2)), less than 1 µM in test [2] (ERK2 enzyme assay (1)), not below 25 µM in test [3] and less than 1 µM in test [4].

Take `CC(C)c1nnc(Nc2ccc3ncc(-c4cnn(CCCN5CCCC5)c4)cc3n2)s1` [Example 0365]: the IC50 was less than 1 µM in test [1] (ERK2 enzyme assay (2)), less than 1 µM in test [2] (ERK2 enzyme assay (1)), not below 25 µM in test [3] and less than 1 µM in test [4].

Turning to `CC(C)c1cnnc(Nc2ccc3ncc(-c4cnn(CCCN5CCOCC5)c4)cc3n2)c1` [Example 0368], the IC50 in test [1] (ERK2 enzyme assay (2)) is less than 1 µM; in test [2] (ERK2 enzyme assay (1)), less than 1 µM; in test [3], not below 25 µM; in test [4], less than 1 µM.
